This is an account of results in patent publication US20120129811A1, “TRICYCLIC INHIBITORS OF PRO-MATRIX METALLOPROTEINASE ACTIVATION” (priority 2010, published 2012).

One may read the inhibition as the relative decrease from the control value, in per cent. A low value points to little suppression. The term IC50 denotes the concentration needed to halve the response being measured.

Assay [1] deals with T1, proMMP9 processing to active MMP9 in HFL-1 cells (Homo sapiens, UniProt P14780).
T1 construct: host or cells: HFL-1 human fetal lung fibroblasts, TNFα plus neutrophil elastase
The assay is described as follows: Activation of proMMP9 by human fetal lung fibroblast (HFL-1) cultures (Western blot). The format is cell-based. As for the experimental part: Activation of proMMP 9 by Human Fetal Lung Fibroblast Cultures
Compound-α was assessed additionally for ability to block the maturation of proMMP9 to active MMP9 in cultures of human fetal lung fibroblasts (HFL-1, American Type Culture Collection # CCL-153). Unlike rat synoviocytes, HFL-1 cells were unable to process proMMP9 to the active form without addition of neutrophil elastase. […] Rather, the function of elastase in this assay may be to inactivate tissue inhibitors of matrix metalloproteinases (TIMPs) that repress endogenous pathways of MMP9 activation (Am J Respir Crit. Care Med; 1999; 159:1138-46).
HLF-1 were maintained in monolayer culture in DMEM with 10% FCS and were used between passage numbers 5-15. HLF-1 were embedded in collagen gels as described for rat SCW synoviocytes (vida supra). Half mL gels containing 0.4 million cells were dislodged into wells of 12 well Costar plates containing 1 mL/well of DMEM adjusted to contain 0.05% BSA and 100 ng/mL human TNFα (R&D Systems Cat #210-TA/CF). After overnight culture (37° C. and 5% CO2) wells were adjusted to contain an additional 0.5 mL of DMEM containing 0.05% BSA and with or without 13.2 μM Compound-α (final concentration was 3.3 μM Compound-α). Next, cultures were adjusted to contain 30 nM human elastase (Innovative Research). The plates were cultured an additional 72 hrs, at which time MMP9 secreted into the conditioned media was bound to gelatin-sepharose and evaluated by Western blot analysis as described for the rat synoviocyte cultures (vida supra). mAb-51/82 detected three forms of MMP9 in HFL-1 cultures.
A second experiment was performed to determine if the 80 kD form was mature active MMP9 and to determine the potency of Compound-α as an inhibitor of MMP9 maturation in this assay. HFL-1 cells embedded in collagen gels were cultured as described above in the presence of TNFα overnight and the cultures were then adjusted to contain 30 nM elastase and graded concentrations of Compound-α for an additional 72 hrs at which time MMP9 secreted into the conditioned media was bound to gelatin-sepharose and evaluated by Western blot analysis for active MMP9 using pAb-1246 raised against the N-terminal neoepitope of active MMP9 (Table 5). In the absence of Compound-α, pAb-1246 readily detected MMP9 with an electrophoretic mobility of approximately 80 kD. […] Inhibition occurred over a dose range with an IC50 of approximately 0.3 μM Compound-α.
(Immunoblotting shows a protein as a band on a membrane.)

Assay [2] deals with T2, MMP9 (Rattus norvegicus, UniProt P50282).
T2 construct: Pro and active MMP9 were abundantly present in ankles of SCW-induced vehicle-treated rats; from tissue; host or cells: tibia-tarsus joints (ankles) of female Lewis rats
The experiment in a line: Western blot of pro and active MMP9 in ankles of rats with SCW-induced arthritis. The format is in vivo. The settings on record: Day 26, four hours after AM dose. As for the experimental part:
Hind-limbs were skinned, severed just above the tibia-tarsus joint and below the metatarsals, and the tibia-tarsus joints (ankles) were weighed, snap frozen and pulverized on dry ice using a hammer and anvil. The pulverized tissue was suspended in 3 volumes (w:v) of ice-cold homogenization buffer containing 50 mM Tris pH 7.5, 150 mM NaCl, 5 mM EDTA, 1% Triton X100, 0.05% Brij 30, 10% dimethylsulfoxide and Complete EDTA-free Protease Inhibitor Cocktail (Roche Diagnostics). The suspended tissue was homogenized sequentially with a Kinematica AG Polytron and a Dounce homogenizer. Homogenates were centrifuged at 16,000×g for 10 min at 4° C. and the soluble fractions were saved. Dimethylsulfoxide was removed from a portion of each soluble fraction using PD MiniTrap™ G-25 desalting columns (GE Healthcare). Homogenates (0.25 mL), free of DMSO, were diluted with an equal volume of binding buffer (i.e., homogenization buffer without dimethylsufoxide) and adjusted to contain 50 μL of a 50% slurry of gelatin-conjugated sepharose. Following 2 hours of rotation at 4° C. the beads were washed twice in binding buffer and eluted in 100 μL 2×-reducing Laemmli buffer with heating to 95° C. for 5 minutes. […]

T1 sequence (P14780 20-707 limits assumed): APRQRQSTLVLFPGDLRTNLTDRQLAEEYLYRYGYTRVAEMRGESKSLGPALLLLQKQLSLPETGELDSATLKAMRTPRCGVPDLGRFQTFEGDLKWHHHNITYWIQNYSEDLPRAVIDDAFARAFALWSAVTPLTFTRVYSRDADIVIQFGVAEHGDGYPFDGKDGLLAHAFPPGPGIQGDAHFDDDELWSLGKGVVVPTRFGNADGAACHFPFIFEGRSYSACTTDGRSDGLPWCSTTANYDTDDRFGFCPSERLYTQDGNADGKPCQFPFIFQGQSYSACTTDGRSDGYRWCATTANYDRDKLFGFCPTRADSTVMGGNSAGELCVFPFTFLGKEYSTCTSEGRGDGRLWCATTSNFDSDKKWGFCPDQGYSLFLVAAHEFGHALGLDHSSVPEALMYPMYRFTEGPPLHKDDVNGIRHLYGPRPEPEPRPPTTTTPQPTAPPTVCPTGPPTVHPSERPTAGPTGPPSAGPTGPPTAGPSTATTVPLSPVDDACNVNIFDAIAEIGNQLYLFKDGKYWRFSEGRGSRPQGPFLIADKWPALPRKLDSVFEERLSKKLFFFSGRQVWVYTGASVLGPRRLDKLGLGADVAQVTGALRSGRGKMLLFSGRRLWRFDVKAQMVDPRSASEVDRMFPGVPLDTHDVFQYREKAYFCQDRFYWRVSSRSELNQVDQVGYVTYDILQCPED
T2 sequence (P50282 108-708): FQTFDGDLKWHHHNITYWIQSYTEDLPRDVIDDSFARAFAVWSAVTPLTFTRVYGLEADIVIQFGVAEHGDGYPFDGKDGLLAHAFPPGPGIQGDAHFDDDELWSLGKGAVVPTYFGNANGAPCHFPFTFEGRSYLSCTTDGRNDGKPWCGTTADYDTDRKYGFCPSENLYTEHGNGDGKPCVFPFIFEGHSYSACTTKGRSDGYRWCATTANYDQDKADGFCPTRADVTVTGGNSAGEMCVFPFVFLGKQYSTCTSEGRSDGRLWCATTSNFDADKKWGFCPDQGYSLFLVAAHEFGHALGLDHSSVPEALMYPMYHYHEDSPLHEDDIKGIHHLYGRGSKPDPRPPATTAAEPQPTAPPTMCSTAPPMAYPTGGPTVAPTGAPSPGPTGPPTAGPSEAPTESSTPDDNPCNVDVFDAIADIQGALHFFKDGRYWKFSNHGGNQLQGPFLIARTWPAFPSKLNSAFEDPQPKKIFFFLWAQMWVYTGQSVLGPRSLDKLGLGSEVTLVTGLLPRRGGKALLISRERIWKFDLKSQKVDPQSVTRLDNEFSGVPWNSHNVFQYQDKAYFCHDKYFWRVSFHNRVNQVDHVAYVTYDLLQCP

Turning to `Cc1nc(C)c(-c2csc(Nc3cc(S(N)(=O)=O)ccc3OC(C)C)n2)s1` [Compound α, 3-(2′,4′-Dimethyl-[4,5′]bithiazolyl-2-ylamino)-4-isopropoxy-benzenesulfonamide.HBr], in assay [1] (3.3 μM Compound-α, 30 nM elastase, final 72 hrs, mAb-L51/82), the “Signal, Total” value turned out to be 91346 INT * mm^2. For the same molecule, in assay [1] (3.3 μM Compound-α, mAb-L51/82), the “Percent of total signal, 80 kD” value is on record as 7%; the “Percent of total signal, 86 kD” value came to 47%; the “Percent of total signal, 100 kD” value worked out at 46%. The same molecule gave an inhibition at 0.12 µM in assay [1] (HFL1, 0.12 μM Compound-α, active MMP9, pAb-1246) of 0%. Moreover, the inhibition at 0.37 µM in assay [1] (HFL1, 0.37 μM Compound-α, active MMP9, pAb-1246) was 73%. In addition, the inhibition at 1.1 µM in assay [1] (HFL1, 1.1 μM Compound-α, active MMP9, pAb-1246) was 99%. For the same molecule, in assay [1] (HFL1, 3.3 μM Compound-α, active MMP9, pAb-1246), the inhibition at 3.3 µM was determined as 100%. In assay [1] (HFL1, 10 μM Compound-α, active MMP9, pAb-1246), this molecule yielded an inhibition at 10 µM of 100%. The IC50 in assay [1] (HFL-1 cultures, pAb-1246, read-out: IC50 for inhibition of processing of proMMP9 to active MMP9) was roughly 0.3 µM. Besides, the “effect on abundance of proMMP9 in ankles” value in assay [2] (mAb-L51/82) is listed as “did not reduce the abundance of proMMP-9”. Further, in assay [2] (mAb-L51/82, listed as Compound-α), the “effect on abundance of proMMP9 in ankles” value was “did not reduce the abundance of proMMP9”.
